In brackets after ≈: the same amount, converted by molar mass. Activity calls are given as the source filed them. No cut-off for these calls is given here.
Experiments:
physchem = details: buffer, pH 7.4
Description: Lipophilicity, log D of the compound at pH 7.4 by HPLC analysis

[1] = Apparent permeability from apical to basolateral side in human Caco2 cells at 10 uM at pH 6.5 after 60 mins by LC-MS analysis; assay type: ADME, cell-based; details: Caco-2, pH 6.5
in vitro [2] = details: human, liver microsomes
Description: Half life in human liver microsomes at 1 mg/ml

[3] = Aqueous solubility of the compound; assay type: physicochemical; details: buffer
in vitro [4] = details: human, Caco-2, pH 7.4
Description: (§1) Apparent permeability from apical to basolateral side in human Caco2 cells at 10 uM at pH 7.4 after 60 mins by LC-MS analysis

P2Y purinoceptor 12 [5] = target: T1, P2Y purinoceptor 12 (Homo sapiens, UniProt Q9H244)
Description: Antagonist activity at P2Y12 receptor (unknown origin) assessed as inhibition of ADP-induced [35S]GTPgammaS binding after 45 mins by scintillation counting analysis

Canis familiaris [6] = test: Antithrombotic activity in conscious dog assessed as inhibition of platelet aggregation administered via infusion; assay type: functional, Canis lupus familiaris
P2Y purinoceptor 12 [7] = target: T1, P2Y purinoceptor 12; test: Displacement of [125I]AZ11931285 from human P2Y12 receptor expressed in CHOK1 cell membrane after 60 seconds; parameters: species or system CHO-K1
P2Y purinoceptor 12 [8] = target: T1, P2Y purinoceptor 12; test: Displacement of [125I]AZ11931285 from human P2Y12 receptor expressed in CHOK1 cell membrane after 30 seconds; parameters: species or system CHO-K1
P2Y purinoceptor 12 [9] = target: T1, P2Y purinoceptor 12; test: Displacement of [125I]AZ11931285 from human P2Y12 receptor expressed in CHOK1 cell membrane after 10 seconds; parameters: species or system CHO-K1
[10] = target: T2, Thromboxane A2 receptor (Homo sapiens) (UniProt P21731); test: Binding affinity to thromboxane A2 receptor (unknown origin) at 10 uM
T2 sequence (whole entry): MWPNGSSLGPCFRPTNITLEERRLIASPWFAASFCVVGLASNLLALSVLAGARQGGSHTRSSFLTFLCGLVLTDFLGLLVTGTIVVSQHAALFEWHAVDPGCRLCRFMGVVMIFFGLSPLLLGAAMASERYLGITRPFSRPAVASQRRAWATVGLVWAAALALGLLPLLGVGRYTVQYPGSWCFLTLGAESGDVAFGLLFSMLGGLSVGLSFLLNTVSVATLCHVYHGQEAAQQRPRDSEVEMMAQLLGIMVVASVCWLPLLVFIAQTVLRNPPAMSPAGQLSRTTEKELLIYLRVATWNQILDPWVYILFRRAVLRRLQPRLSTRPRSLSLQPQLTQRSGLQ

Canis familiaris [11] = species on record: Canis familiaris; test: Antithrombotic activity in dog Folt's model of arterial thrombosis assessed as inhibition of platelet aggregation; assay type: functional, Canis lupus familiaris
Canis familiaris [12] = test: Toxicity in conscious dog assessed as prolongation of bleeding time at 0.02 to 8700 nmol/kg/min administered via infusion relative to control; assay type: organism-based, Canis lupus familiaris; details: in vivo, iv
[13] = target: P2Y purinoceptor 1 (Homo sapiens) (UniProt P47900); test: Binding affinity to P2Y1 receptor (unknown origin) at 10 uM
[14] = Half life in Beagle dog at 1 umol/kg, iv; assay type: ADME, organism-based, Canis lupus familiaris; details: in vivo
Caco-2 = details: human, caco-2, pH 7.4, 1 h, 10 µM
Description: as §1

[15] = AUC in Beagle dog at 1 umol/kg, iv; assay type: ADME, organism-based, Canis lupus familiaris; details: plasma
Canis familiaris [16] = test: Toxicity in dog Folt's model of arterial thrombosis assessed as prolongation of bleeding time at 0.001 to 0.1 umol/kg/min; assay type: organism-based, Canis lupus familiaris; details: in vivo, iv
P2Y purinoceptor 12 [17] = target: T1, P2Y purinoceptor 12; test: Displacement of [125I]AZ11931285 from human P2Y12 receptor expressed in CHOK1 cell membrane after 60 mins; parameters: species or system CHO-K1
[18] = target: Platelet-activating factor receptor (Homo sapiens) (UniProt P25105); test: Binding affinity to PAF receptor (unknown origin) at 10 uM
Canis familiaris [19] = test: Toxicity in dog Folt's model of arterial thrombosis assessed as prolongation of bleeding time at 0.015 umol/kg/min; assay type: organism-based, Canis lupus familiaris; details: in vivo, iv
Canis familiaris [20] = test: Toxicity in conscious dog assessed as prolongation of bleeding time at 1.6 umol/kg/min administered via infusion relative to control; assay type: organism-based, Canis lupus familiaris; details: in vivo, iv
Plasma = test: Fraction unbound in Beagle dog plasma at 37 degC after 18 hrs by equilibrium dialysis technique; assay type: ADME, cell-free, Canis lupus familiaris

T1 sequence (Q9H244 whole entry, the tested form may be a part): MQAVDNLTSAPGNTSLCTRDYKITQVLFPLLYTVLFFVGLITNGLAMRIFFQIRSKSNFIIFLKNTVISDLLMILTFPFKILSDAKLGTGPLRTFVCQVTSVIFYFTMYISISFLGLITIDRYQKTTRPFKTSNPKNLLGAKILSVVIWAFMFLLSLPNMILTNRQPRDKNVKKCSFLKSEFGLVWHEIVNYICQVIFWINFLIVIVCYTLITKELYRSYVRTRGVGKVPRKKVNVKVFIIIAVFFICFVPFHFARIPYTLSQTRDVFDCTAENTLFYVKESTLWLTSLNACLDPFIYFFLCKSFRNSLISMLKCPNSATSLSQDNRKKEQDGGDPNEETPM
Sequence of P2Y purinoceptor 1 (Homo sapiens) (P47900 whole entry): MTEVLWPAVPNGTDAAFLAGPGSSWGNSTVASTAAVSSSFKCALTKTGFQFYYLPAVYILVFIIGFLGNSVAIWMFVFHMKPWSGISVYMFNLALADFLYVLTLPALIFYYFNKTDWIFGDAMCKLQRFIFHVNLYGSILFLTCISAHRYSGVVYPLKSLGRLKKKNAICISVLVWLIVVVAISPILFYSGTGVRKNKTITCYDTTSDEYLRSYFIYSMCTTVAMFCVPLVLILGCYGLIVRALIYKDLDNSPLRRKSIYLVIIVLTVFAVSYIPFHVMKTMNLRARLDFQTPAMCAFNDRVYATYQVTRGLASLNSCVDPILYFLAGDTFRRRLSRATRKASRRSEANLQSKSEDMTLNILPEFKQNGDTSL
Sequence of Platelet-activating factor receptor (Homo sapiens) (P25105 whole entry): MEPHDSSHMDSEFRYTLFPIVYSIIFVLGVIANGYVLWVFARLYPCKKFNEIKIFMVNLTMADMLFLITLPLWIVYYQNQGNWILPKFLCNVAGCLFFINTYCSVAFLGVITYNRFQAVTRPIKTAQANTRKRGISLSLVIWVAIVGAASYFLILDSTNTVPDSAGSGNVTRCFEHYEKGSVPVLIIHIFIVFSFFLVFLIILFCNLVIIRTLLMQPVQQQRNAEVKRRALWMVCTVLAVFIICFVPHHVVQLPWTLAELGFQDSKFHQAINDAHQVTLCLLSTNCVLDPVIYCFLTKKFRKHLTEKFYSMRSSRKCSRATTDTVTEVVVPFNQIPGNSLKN

## CCCC(=O)c1cc(C#N)c(N2CCC(C(=O)NS(=O)(=O)Cc3ccccc3)CC2)nc1C
physchem
  logD: 2.8
[1]
  Papp A→B at 1 h, 10 µM: 0.3 ×10⁻⁶ cm/s
In vitro [2]
  half-life: > 1.92 h
[3]
  solubility: > 100 µM
In vitro [4]
  Papp A→B at 1 h, 10 µM: 0.32 ×10⁻⁶ cm/s
P2Y purinoceptor 12 [5]
  IC50: 100 nM

## CCCC(=O)c1cc(C#N)c(N2CCC(C(=O)NS(=O)(=O)Cc3ccccc3)CC2)nc1OC
physchem
  logD: 3

## CCCC(=O)c1cc(C#N)c(N2CCC(C(=O)NS(=O)(=O)Cc3ccc(F)cc3F)CC2)nc1C
physchem
  logD: 3
[1]
  Papp A→B at 1 h, 10 µM: 0.3 ×10⁻⁶ cm/s
In vitro [2]
  half-life: > 1.92 h
[3]
  solubility: > 100 µM
P2Y purinoceptor 12 [5]
  IC50: 42 nM

## CCCC(=O)c1cc(C#N)c(N2CCC(C(=O)NS(=O)(=O)Cc3ccccc3)CC2)nc1CCC
physchem
  logD: 3.7
In vitro [4]
  Papp A→B at 1 h, 10 µM: 1.2 ×10⁻⁶ cm/s
P2Y purinoceptor 12 [5]
  IC50: 270 nM

## CCCC(=O)c1cc(C#N)c(N2CCC(C(=O)NS(=O)(=O)C3(c4ccccc4)CC3)CC2)nc1C
physchem
  logD: 3.9
[1]
  Papp A→B at 1 h, 10 µM: 5.2 ×10⁻⁶ cm/s
In vitro [2]
  half-life: > 1.92 h
[3]
  solubility: > 100 µM
P2Y purinoceptor 12 [5]
  IC50: 160 nM

## CCCC(=O)c1cc(C#N)c(N2CCC(C(=O)NS(=O)(=O)Cc3ccc(C)c(F)c3)CC2)nc1C
physchem
  logD: 3.4
[1]
  Papp A→B at 1 h, 10 µM: 0.7 ×10⁻⁶ cm/s
In vitro [2]
  half-life: > 1.92 h
[3]
  solubility: > 100 µM
P2Y purinoceptor 12 [5]
  IC50: 130 nM

## CCOC(=O)c1cc(C#N)c(N2CCC(C(=O)NS(=O)(=O)Cc3ccccc3)CC2)nc1C
physchem
  logD: 2.8
Canis familiaris [6]
  ID80: 0.44 µmol/kg/min
P2Y purinoceptor 12 [7]
  IC50: 14 nM
P2Y purinoceptor 12 [8]
  IC50: 22 nM
P2Y purinoceptor 12 [9]
  IC50: 44 nM
[10]
  Activity: inactive
In vitro [2]
  half-life: 1 h
Canis familiaris [11]
  ID80: 0.009 µmol/kg/min
Canis familiaris [12]
  Activity: Non-toxic
[13]
  Activity: inactive
[14]
  half-life: 5.1 h
Caco-2
  Papp: 1 ×10⁻⁶ cm/s
[15]
  AUC: 5.9 µM·h
Canis familiaris [16]
  Activity: Non-toxic
P2Y purinoceptor 12 [17]
  IC50: 9 nM
[18]
  Activity: inactive

## CCCC(=O)c1cc(C#N)c(N2CCC(C(=O)NS(=O)(=O)C(C)c3ccccc3)CC2)nc1C (racemic)
physchem
  logD: 3.3
[1]
  Papp A→B at 1 h, 10 µM: 1 ×10⁻⁶ cm/s
In vitro [2]
  half-life: > 1.92 h
[3]
  solubility: > 100 µM
P2Y purinoceptor 12 [5]
  IC50: 190 nM

## CCCC(=O)c1cc(C#N)c(N2CCC(C(=O)NS(=O)(=O)Cc3ccccc3Cl)CC2)nc1C
physchem
  logD: 3.1
[1]
  Papp A→B at 1 h, 10 µM: 0.4 ×10⁻⁶ cm/s
In vitro [2]
  half-life: > 1.92 h
[3]
  solubility: > 100 µM
P2Y purinoceptor 12 [5]
  IC50: 270 nM

## CCCC(=O)c1cc(C#N)c(N2CCC(C(=O)NS(=O)(=O)Cc3ccc(Cl)cc3)CC2)nc1C
physchem
  logD: 3.4
[1]
  Papp A→B at 1 h, 10 µM: 0.4 ×10⁻⁶ cm/s
In vitro [2]
  half-life: > 1.92 h
[3]
  solubility: > 100 µM
P2Y purinoceptor 12 [5]
  IC50: 57 nM

## CCCC(=O)c1cc(C#N)c(N2CCC(C(=O)NS(=O)(=O)C3(c4ccccc4)CC3)CC2)nc1SC
Canis familiaris [6]
  ID80: 0.052 µmol/kg/min
Canis familiaris [6]; Canis lupus familiaris
  inhibition: Dose-dependent effect
Canis familiaris [19]
  Activity: Toxic
P2Y purinoceptor 12 [7]
  IC50: 23 nM
Canis familiaris [20]
  fold change (FC): 6.7
P2Y purinoceptor 12 [8]
  IC50: 41 nM
P2Y purinoceptor 12 [9]
  IC50: 126 nM
[10]
  Activity: inactive
In vitro [2]
  half-life: > 1.92 h
[3]
  solubility: 78 µM (≈ 41.1 µg/mL)
Canis familiaris [11]
  ID80: 0.005 µmol/kg/min
In vitro [4]
  Papp A→B at 1 h, 10 µM: 2 ×10⁻⁶ cm/s
[13]
  Activity: inactive
[14]
  half-life: 5.2 h
[15]
  AUC: 6.7 µM·h
P2Y purinoceptor 12 [5]
  IC50: 19 nM
Plasma
  Fu: 0.41%
P2Y purinoceptor 12 [17]
  IC50: 4 nM
[18]
  Activity: inactive

## CCCC(=O)c1cc(C#N)c(N2CCC(C(=O)NS(=O)(=O)Cc3ccccc3)CC2)nc1SC
physchem
  logD: 3.1
In vitro [2]
  half-life: > 1.92 h
[3]
  solubility: > 100 µM
In vitro [4]
  Papp A→B at 1 h, 10 µM: 0.3 ×10⁻⁶ cm/s
P2Y purinoceptor 12 [5]
  IC50: 17 nM

## CCCC(=O)c1cc(C#N)c(N2CCC(C(=O)NS(=O)(=O)Cc3ccccc3)CC2)nc1CF
physchem
  logD: 2.7
In vitro [4]
  Papp A→B at 1 h, 10 µM: < 0.1 ×10⁻⁶ cm/s
P2Y purinoceptor 12 [5]
  IC50: 93 nM

## CCCC(=O)c1cc(C#N)c(N2CCC(C(=O)NS(=O)(=O)Cc3ccc(C)cc3)CC2)nc1C
physchem
  logD: 3.4
[1]
  Papp A→B at 1 h, 10 µM: 1.4 ×10⁻⁶ cm/s
In vitro [2]
  half-life: > 1.92 h
[3]
  solubility: > 100 µM
P2Y purinoceptor 12 [5]
  IC50: 59 nM
